Read-outs that look alike come from different tables or passages of the source.
What was measured:
[1] = molecular target: Gal-4-PPAR (human PPAR LBD fused to GAL4 DNA-binding domain) (Homo sapiens (Human), UniProt P37231); assay: GAL4-PPARG LBD / UAS-luciferase transactivation assay in HEK 293T cells; assay type: cell-based; settings: for activation at 10 µM: HEK-293T, 18 h, read-out: % transactivation at 10 μM (GAL4)
[2] = molecular target: GST-PPARG-LBD (Homo sapiens (Human), UniProt P37231); assay: Lanthascreen PPARG competitive binding assay (Invitrogen, TR-FRET); settings: NA = not active, inc = incomplete curve, read-out: IC50 (nM) Lantha
Chain of GST-PPARG-LBD (P37231 238-503): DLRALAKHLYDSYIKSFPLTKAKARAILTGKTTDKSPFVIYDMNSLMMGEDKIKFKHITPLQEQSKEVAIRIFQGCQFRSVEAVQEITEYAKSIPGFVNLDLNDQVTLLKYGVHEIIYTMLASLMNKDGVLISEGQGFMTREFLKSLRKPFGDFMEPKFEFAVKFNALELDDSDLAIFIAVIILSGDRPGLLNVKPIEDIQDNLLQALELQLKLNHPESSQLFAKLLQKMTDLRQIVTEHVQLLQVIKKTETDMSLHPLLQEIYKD
Procedure, shortened: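 TR-FRET competitive binding of GST-PPARG-LBD with 5 nM Tb-GST-antibody and 5 nM Fluormone Pan-PPAR Green tracer, in TR-FRET buffer C. Compound serially diluted from 10 μM, 2 h dark incubation, in triplicate. Readout is 520/490 nm emission ratio (340 nm excitation), expressed as fold change over 2% DMSO control.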

[3] = Lanthascreen competitive binding
[4] = GAL4 transactivation, HEK 293T cells, NA = not active, read-out: EC50 (nM) GAL4

Chain of Gal-4-PPAR (human PPAR LBD fused to GAL4 DNA-binding domain) (P37231 238-503): as above

| Structure (SMILES) | EC50 [1] | activation at 10 µM [1] | IC50 [2, 3] | EC50 [1, 4] | EC50 ([1]; GAL4 transactivation, read-out: EC50 (nM) GAL4) | IC50 ([2]; Lanthascreen PPARG competitive binding) |
| --- | --- | --- | --- | --- | --- | --- |
| Cc1c(C)n(Cc2ccc(-c3ccccc3-c3nn[nH]n3)cc2)c2ccc(C(=O)N[C@@H](C)c3cccc(C(C)C)c3)cc12 [Example 243, (S)-1-((2′-(2H-tetrazol-5-yl)-[1,1′-biphenyl]-4-yl)methyl)-N-(1-(3-isopropylphenyl)ethyl)-2,3-dimethyl-1H-indole-5-carboxamide] | 1600 nM | 10% | 22 nM |  |  |  |
| Cc1c(C)n(Cc2ccc(-c3ccccc3-c3noc(=O)[nH]3)cc2)c2ccc(C(=O)N[C@@H](C)c3cccc(C(C)C)c3)cc12 [Example 244, (S)—N-(1-(3-isopropylphenyl)ethyl)-2,3-dimethyl-1-((2′-(5-oxo-4,5-dihydro-1,2,4-oxadiazol-3-yl)-[1,1′-biphenyl]-4-yl)methyl)-1H-indole-5-carboxamide] | 921 nM | 8% | 40 nM |  |  |  |
| Cc1c(C)n(Cc2ccc(-c3ccccc3-c3n[nH]c(=O)o3)cc2)c2ccc(C(=O)N[C@@H](C)c3cccc(C(C)C)c3)cc12 [Example 245, (S)—N-(1-(3-isopropylphenyl)ethyl)-2,3-dimethyl-1-((2′-(5-oxo-4,5-dihydro-1,3,4-oxadiazol-2-yl)-[1,1′-biphenyl]-4-yl)methyl)-1H-indole-5-carboxamide] | 454 nM | 10% | 7 nM |  |  |  |
| CCCc1ccc([C@H](C)NC(=O)c2ccc3c(c2)c(C)c(C)n3Cc2ccc(-c3ccccc3C(=O)O)cc2)cc1 [Example 251, (S)-4′-((2,3-dimethyl-5-(1-(4-propylphenyl)ethylcarbamoyl)-1H-indol-1-yl)methyl)biphenyl-2-carboxylic acid] |  | 30% | 40 nM | 1610 nM |  |  |
| Cc1c(C)n(Cc2ccc(-c3ccccc3C(=O)O)cc2)c2ccc(C(=O)NC(C)c3cncc(C4CC4)c3)cc12 (stereo not drawn) [Example 259, 4′-((5-(1-(5-cyclopropylpyridin-3-yl)ethylcarbamoyl)-2,3-dimethyl-1H-indol-1-yl)methyl)biphenyl-2-carboxylic acid] |  | 15% | 19 nM | 1480 nM |  |  |
| Cc1c(C)n(Cc2ccc(-c3ccccc3C(=O)O)cc2)c2ccc(C(=O)N[C@@H](C)c3ccc(Br)cn3)cc12 [Example 260, (S)-4′-((5-((1-(5-bromopyridin-2-yl)ethyl)carbamoyl)-2,3-dimethyl-1H-indol-1-yl)methyl)-[1,1′-biphenyl]-2-carboxylic acid] |  | 25% | 2 nM | 42 nM |  |  |
| Cc1c(C)n(Cc2ccc(-c3ccccc3C(=O)O)cc2)c2ccc(C(=O)N[C@@H](C)c3ccc(C4CC4)cn3)cc12 [Example 261, (S)-4′-((5-((1-(5-cyclopropylpyridin-2-yl)ethyl)carbamoyl)-2,3-dimethyl-1H-indol-1-yl)methyl)-[1,1′-biphenyl]-2-carboxylic acid] |  | 30% | 4 nM | 50 nM |  |  |
| Cc1c(C)n(Cc2ccc(-c3ccccc3C(=O)O)cc2)c2ccc(C(=O)N[C@@H](C)c3ccc(Cl)nc3)cc12 [Example 262, (S)-4′-((5-((1-(6-chloropyridin-3-yl)ethyl)carbamoyl)-2,3-dimethyl-1H-indol-1-yl)methyl)-[1,1′-biphenyl]-2-carboxylic acid] |  | 35% | 144 nM | 4000 nM |  |  |
| Cc1c(C)n(Cc2ccc(-c3ccccc3C(=O)O)cc2)c2ccc(C(=O)N[C@@H](C)c3ccc(C4CC4)nc3)cc12 [Example 263, (S)-4′-((5-((1-(6-cyclopropylpyridin-3-yl)ethyl)carbamoyl)-2,3-dimethyl-1H-indol-1-yl)methyl)-[1,1′-biphenyl]-2-carboxylic acid] |  | 20% | 59 nM | 3760 nM |  |  |
| Cc1c(C)n(Cc2ccc(-c3ccccc3C(=O)O)cc2)c2ccc(C(=O)N[C@H](C)c3ccc(C4CC4)nc3)cc12 [Example 264, (R)-4′-((5-((1-(6-cyclopropylpyridin-3-yl)ethyl)carbamoyl)-2,3-dimethyl-1H-indol-1-yl)methyl)-[1,1′-biphenyl]-2-carboxylic acid] |  | 35% | 32 nM | 1990 nM |  |  |
| Cc1c(C)n(Cc2ccc(-c3ccccc3C(=O)O)cc2)c2ccc(C(=O)N[C@@H](C)c3cc(C4CC4)ccn3)cc12 [Example 266, (S)-4′-((5-((1-(4-cyclopropylpyridin-2-yl)ethyl)carbamoyl)-2,3-dimethyl-1H-indol-1-yl)methyl)-[1,1′-biphenyl]-2-carboxylic acid] |  | 25% | 8 nM | 588 nM |  |  |
| Cc1c(C)n(Cc2ccc(-c3ccccc3C(=O)O)cc2)c2ccc(C(=O)N[C@@H](C)c3ccnc(Br)c3)cc12 [Example 267, (S)-4′-((5-(1-(2-bromopyridin-4-yl)ethylcarbamoyl)-2,3-dimethyl-1H-indol-1-yl)methyl)biphenyl-2-carboxylic acid] |  | 40% | 98 nM | 2490 nM |  |  |
| Cc1c(C)n(Cc2ccc(-c3ccccc3C(=O)O)cc2)c2ccc(C(=O)N[C@@H](C)c3ccnc(C4CC4)c3)cc12 [Example 268, (S)-4′-((5-(1-(2-cyclopropylpyridin-4-yl)ethylcarbamoyl)-2,3-dimethyl-1H-indol-1-yl)methyl)biphenyl-2-carboxylic acid] |  | 20% | 352 nM | 8970 nM |  |  |
| Cc1c(C)n(Cc2ccc(-c3ccccc3C(=O)O)cc2)c2ccc(C(=O)N[C@H](C)c3ccnc(Br)c3)cc12 [Example 269, (R)-4′-((5-(1-(2-bromopyridin-4-yl)ethylcarbamoyl)-2,3-dimethyl-1H-indol-1-yl)methyl)biphenyl-2-carboxylic acid] |  | 40% | 8 nM | 907 nM |  |  |
| Cc1c(C)n(Cc2ccc(-c3ccccc3C(=O)O)cc2)c2ccc(C(=O)N[C@H](C)c3ccnc(C4CC4)c3)cc12 [Example 270, (R)-4′-((5-(1-(2-cyclopropylpyridin-4-yl)ethylcarbamoyl)-2,3-dimethyl-1H-indol-1-yl)methyl)biphenyl-2-carboxylic acid] |  | 40% | 15 nM | 686 nM |  |  |
| Cc1c(C)n(Cc2ccc(-c3ccccc3C(=O)O)cc2)c2ccc(C(=O)N[C@H](C)c3cccc(Br)n3)cc12 [Example 271, (R)-4′-((5-(1-(6-bromopyridin-2-yl)ethylcarbamoyl)-2,3-dimethyl-1H-indol-1-yl)methyl)biphenyl-2-carboxylic acid] |  | 20% | 2 nM | 52 nM |  |  |
| Cc1c(C)n(Cc2ccc(-c3ccccc3C(=O)O)cc2)c2ccc(C(=O)NC(C)c3cccc(C4CC4)n3)cc12 (stereo not drawn) [Example 272, 4′-((5-(1-(6-cyclopropylpyridin-2-yl)ethylcarbamoyl)-2,3-dimethyl-1H-indol-1-yl)methyl)biphenyl-2-carboxylic acid] |  | 20% | < 1 nM | 2 nM |  |  |
| Cc1c(C)n(Cc2ccc(-c3ccccc3C(=O)O)cc2)c2ccc(C(=O)N[C@@H](C)c3cccc(Br)n3)cc12 [Example 273, (S)-4′-((5-(1-(6-bromopyridin-2-yl)ethylcarbamoyl)-2,3-dimethyl-1H-indol-1-yl)methyl)biphenyl-2-carboxylic acid] |  | 30% |  |  | 294 nM | 15 nM |

From US8957093B2, “N-biphenylmethylindole modulators of PPARG” (The Scripps Research Institute, priority 2011, dated 2015)
